Read-outs that look alike come from different tables or passages of the source. Some results are limits rather than exact numbers.

Common to all, as to format: biochemical
In assay [1] the target is T1, Mer (Homo sapiens, UniProt Q12866).
T1 sequence (Q12866 21-999): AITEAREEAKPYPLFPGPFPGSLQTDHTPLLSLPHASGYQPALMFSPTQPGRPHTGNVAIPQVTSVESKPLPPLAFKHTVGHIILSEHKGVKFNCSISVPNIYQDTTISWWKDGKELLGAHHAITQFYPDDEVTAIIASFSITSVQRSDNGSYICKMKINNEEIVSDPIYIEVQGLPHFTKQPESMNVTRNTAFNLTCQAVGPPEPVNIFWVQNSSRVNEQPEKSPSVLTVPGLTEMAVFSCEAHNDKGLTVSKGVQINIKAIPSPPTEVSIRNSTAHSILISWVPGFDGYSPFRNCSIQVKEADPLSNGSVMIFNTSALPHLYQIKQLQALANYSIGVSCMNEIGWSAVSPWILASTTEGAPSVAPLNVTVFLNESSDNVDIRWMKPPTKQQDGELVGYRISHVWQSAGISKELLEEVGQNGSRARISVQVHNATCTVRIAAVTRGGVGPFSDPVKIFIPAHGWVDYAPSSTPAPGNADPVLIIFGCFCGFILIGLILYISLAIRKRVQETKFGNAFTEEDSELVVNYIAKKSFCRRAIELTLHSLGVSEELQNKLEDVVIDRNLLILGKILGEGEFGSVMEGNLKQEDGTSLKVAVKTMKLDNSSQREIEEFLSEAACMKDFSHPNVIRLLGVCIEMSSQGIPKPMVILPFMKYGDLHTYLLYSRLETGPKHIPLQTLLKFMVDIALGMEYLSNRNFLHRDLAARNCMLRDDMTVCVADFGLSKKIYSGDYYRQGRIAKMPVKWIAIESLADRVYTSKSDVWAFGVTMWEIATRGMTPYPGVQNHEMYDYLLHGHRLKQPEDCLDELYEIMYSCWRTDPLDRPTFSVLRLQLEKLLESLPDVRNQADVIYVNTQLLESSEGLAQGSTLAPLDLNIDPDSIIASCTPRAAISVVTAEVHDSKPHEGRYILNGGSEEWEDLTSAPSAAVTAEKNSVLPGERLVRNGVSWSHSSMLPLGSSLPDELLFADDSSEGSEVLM
The assay can be described thus: Mer kinase inhibition IC50.

In assay [2] the target is T2, Axl (Homo sapiens, UniProt P30530).
T2 sequence (P30530 26-894): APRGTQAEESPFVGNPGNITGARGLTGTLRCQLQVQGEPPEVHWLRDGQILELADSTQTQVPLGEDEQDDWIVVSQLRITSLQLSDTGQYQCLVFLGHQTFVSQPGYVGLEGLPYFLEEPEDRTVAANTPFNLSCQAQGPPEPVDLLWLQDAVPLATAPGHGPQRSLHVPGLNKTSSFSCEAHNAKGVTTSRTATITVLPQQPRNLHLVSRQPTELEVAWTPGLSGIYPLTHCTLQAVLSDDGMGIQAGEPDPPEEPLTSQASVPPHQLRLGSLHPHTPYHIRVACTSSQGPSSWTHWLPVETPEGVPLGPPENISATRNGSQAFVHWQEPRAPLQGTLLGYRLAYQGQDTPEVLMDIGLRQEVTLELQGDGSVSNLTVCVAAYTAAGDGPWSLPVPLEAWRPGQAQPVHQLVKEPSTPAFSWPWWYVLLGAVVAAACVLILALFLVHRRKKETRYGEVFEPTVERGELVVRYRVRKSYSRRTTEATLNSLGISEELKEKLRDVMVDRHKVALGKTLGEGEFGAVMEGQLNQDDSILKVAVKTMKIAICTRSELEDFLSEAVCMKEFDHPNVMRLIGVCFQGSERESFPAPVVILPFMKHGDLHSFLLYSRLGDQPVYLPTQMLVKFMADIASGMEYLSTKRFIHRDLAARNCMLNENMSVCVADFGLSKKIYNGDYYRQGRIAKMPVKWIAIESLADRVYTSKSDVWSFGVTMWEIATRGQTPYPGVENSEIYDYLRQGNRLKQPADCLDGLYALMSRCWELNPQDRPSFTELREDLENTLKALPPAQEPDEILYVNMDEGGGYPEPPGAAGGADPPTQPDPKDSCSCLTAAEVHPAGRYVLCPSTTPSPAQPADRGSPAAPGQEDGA
The assay can be described thus: Axl kinase inhibition IC50.

The target of assay [3] is T3, Tyro3 (Homo sapiens, UniProt Q06418).
T3 sequence (Q06418 41-890): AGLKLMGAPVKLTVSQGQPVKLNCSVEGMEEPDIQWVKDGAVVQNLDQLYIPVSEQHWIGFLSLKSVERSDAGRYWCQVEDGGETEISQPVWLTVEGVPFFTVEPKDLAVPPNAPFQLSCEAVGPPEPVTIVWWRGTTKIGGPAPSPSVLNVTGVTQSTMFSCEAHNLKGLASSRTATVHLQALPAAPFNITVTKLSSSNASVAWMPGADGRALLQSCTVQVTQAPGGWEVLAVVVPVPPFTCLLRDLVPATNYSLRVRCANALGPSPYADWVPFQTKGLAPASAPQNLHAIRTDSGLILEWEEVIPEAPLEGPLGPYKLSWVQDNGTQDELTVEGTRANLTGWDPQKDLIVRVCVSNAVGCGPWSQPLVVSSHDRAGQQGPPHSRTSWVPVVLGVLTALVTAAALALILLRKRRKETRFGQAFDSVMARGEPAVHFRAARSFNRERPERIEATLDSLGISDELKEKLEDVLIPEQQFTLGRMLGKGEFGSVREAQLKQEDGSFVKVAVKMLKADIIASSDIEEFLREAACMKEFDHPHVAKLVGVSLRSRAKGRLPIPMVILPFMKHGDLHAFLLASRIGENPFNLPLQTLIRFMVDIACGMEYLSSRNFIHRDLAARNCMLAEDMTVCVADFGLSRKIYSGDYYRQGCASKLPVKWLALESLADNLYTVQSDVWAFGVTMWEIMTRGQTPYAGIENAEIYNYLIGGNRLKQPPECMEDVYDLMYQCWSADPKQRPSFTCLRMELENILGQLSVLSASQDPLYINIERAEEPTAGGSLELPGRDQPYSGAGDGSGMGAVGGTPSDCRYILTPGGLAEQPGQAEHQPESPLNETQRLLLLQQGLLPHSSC
The assay can be described thus: Tyro3 kinase inhibition IC50.

In assay [4] the target is T4, FLT3 (Homo sapiens, UniProt P36888).
T4 sequence (P36888 27-993): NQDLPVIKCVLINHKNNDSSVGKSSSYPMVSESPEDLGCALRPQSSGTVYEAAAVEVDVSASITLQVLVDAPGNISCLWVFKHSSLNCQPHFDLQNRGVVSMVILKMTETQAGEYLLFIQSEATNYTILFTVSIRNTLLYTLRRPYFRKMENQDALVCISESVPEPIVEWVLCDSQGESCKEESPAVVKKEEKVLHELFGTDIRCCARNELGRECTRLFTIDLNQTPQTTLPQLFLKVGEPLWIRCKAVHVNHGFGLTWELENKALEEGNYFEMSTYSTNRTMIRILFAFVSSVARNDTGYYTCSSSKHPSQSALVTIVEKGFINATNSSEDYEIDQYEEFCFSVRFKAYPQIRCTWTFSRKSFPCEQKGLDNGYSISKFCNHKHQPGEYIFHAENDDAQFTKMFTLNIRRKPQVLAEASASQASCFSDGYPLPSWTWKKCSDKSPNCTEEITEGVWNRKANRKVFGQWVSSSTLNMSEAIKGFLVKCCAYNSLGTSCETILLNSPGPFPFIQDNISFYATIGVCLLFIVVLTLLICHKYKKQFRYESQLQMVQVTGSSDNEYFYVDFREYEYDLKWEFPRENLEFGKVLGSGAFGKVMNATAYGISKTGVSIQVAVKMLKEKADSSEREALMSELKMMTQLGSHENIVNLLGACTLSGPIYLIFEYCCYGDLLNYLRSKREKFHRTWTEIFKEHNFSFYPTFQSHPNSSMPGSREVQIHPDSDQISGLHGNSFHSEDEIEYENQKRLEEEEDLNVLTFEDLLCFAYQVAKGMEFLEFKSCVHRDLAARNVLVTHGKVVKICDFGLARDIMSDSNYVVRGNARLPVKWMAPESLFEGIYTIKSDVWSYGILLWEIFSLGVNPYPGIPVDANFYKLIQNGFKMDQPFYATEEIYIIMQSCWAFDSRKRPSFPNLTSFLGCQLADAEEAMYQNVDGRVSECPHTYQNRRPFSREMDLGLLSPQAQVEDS
The assay can be described thus: FLT3 kinase inhibition IC50. The settings on record: Example 6.

For orientation: IC50 means the concentration needed to halve the response being measured. Consider `CCCCN(C)c1ncc2c(-c3ccc(F)cc3)nn(C[C@H]3CC[C@H](N)CC3)c2n1` [UNC1653, reference compound], for which the IC50 is 550 nM in assay [1] (Example 6, read-out: MerTK IC50); 7000 nM in assay [2] (Example 6); 15000 nM in assay [3] (Example 6, read-out: Tyro IC50); 220 nM in assay [4].

Consider `CN1CCN(Cc2ccc(-c3cnc(Nc4ccc(C#Cc5cc(NC(=O)c6ccccc6)ccn5)cc4)nc3N[C@H]3CC[C@H](O)CC3)cc2)CC1` [UNC3868A], for which the concentration for half-maximal inhibition (IC50) was below 10 nM in assay [1] (Table 3, read-out: Mer IC50); 10 to 100 nM in assay [2] (Table 3); 10 to 100 nM in assay [3] (Table 3, read-out: Tyro3 IC50).

Consider `CN1CCC(N2CCC(c3ccc(Nc4ncc(-c5ccccn5)c(N[C@H]5CC[C@H](O)CC5)n4)cc3)CC2)CC1` [UNC5072A], for which the IC50 fell in the range of 10 to 100 nM in assay [1] (Table 2, read-out: Mer IC50); 100 to 1000 nM in assay [2] (Table 2); 100 to 1000 nM in assay [3] (Table 2, read-out: Tyro3 IC50).

The record behind these values is patent publication US10526309B2, “Pan-TAM inhibitors and Mer/Axl dual inhibitors” (The University of North Carolina at Chapel Hill, priority 2015, dated 2020).
